Data published in patent US20250127937A1, “FAP INHIBITOR” (UNIVERSITÄT HEIDELBERG, priority 2018, published 2025).
pIC50: −log10 of the molar value. Where two headings read alike, the source gives them in different places. Each block holds one compound with its values, some of them ahead of it.

Assays:
[1] = system: HT-1080-FAP and HEK-muFAP cells; experiment: Fluorescence laser scanning microscopy of internalization, FAP-α expressing cells; assay type: cell-based; conditions: fluorescently labeled, 1 to 2 hrs
Method: (§1) In vitro binding studies were performed using the human tumor cell lines BxPC3, Capan-2, MCF-7 (purchased from Sigma Aldrich Chemie GmbH) and SK-LMS-1 (purchased from ATCC) as well as stably transfected FAP-cell lines HT-1080-FAP, HEK-muFAP and the CD26 expressing cell line HEK-CD26 (obtained from Stefan Bauer, NCT Heidelberg). All cells were cultivated in Dulbecco's modified Eagle's medium (DMEM) containing 10% fetal calf serum at 37° C./5% carbon dioxide. For fluorescence internalization experiments, cells were seeded on coverslips and stained with FAPI-02-Atto488 and DAPI for cell nucleus staining. Images were acquired on a laser scanning confocal microscope using a 63× oil immersion objective.
(§2) For internalization experiments HT-1080-FAP and HEK muFAP cells were seeded on uncoated coverslips in a 24-well plate and cultivated in culture medium containing 10% fetal calf serum to a final confluence of approx. 80-90%. The medium was removed and cells were washed with 0.5 mL PBS pH 7.4 for 2 times. FAPI-02-Atto488 (20 μM in DMEM) was added to the cells and incubated for 2 hrs at 37° C. Cells were washed with 0.5 mL PBS pH 7.4 for 3 times and fixed with paraformaldehyde (2% in PBS) for 15 min. The overgrown coverslips were placed on microscope slides using mounting medium containing DAPI for cell nucleus staining (Fluoroshield, Sigma-Aldrich). […]

HEK-CD26 cells = experiment: Fluorescence laser scanning microscopy of internalization, FAP-α negative cells; assay type: cell-based; conditions: fluorescently labeled, 1 to 2 hrs
Method: as §1, §2

HT-1080-FAP cells [2] = experiment: Radioligand binding and internalization in HT-1080-FAP cells; assay type: cell-based, human
Method: (§3) Radioligand binding studies were performed using HT-1080-FAP cells. The radiolabeled compound was added to the cell culture and incubated for different time intervals ranging from 10 min to 24 h. Competition experiments were performed by simultaneous exposure to unlabeled (10^−5 M to 10^−9M) and radiolabeled compound for 60 min. For efflux experiments, radioactive medium was removed after incubation for 60 min and replaced by non-radioactive medium for time intervals ranging from 1 to 24 h. For internalization experiments, surface bound activity was removed by incubating the cells with 1 M glycine-HCl buffer for 10 min. The radioactivity was measured using a γ-counter, normalized to 1 mio cells and calculated as percentage of applied dose (% ID).
(§4) For radioligand binding studies, cells were seeded in 6-well plates and cultivated for 48 h to a final confluence of approx. 80-90% (1.2-2 mio cells/well). The medium was replaced by 1 mL fresh medium without fetal calf serum. The radiolabeled compound was added to the cell culture and incubated for different time intervals ranging from 10 min to 24 h. Competition experiments were performed by simultaneous exposure to unlabeled (10^−5 M to 10^−9 M) and radiolabeled compound for 60 min. For efflux experiments, radioactive medium was removed after incubation for 60 min and replaced by non-radioactive medium for time intervals ranging from 1 to 24 h. In all experiments, the cells were washed with 1 mL phosphate-buffered saline pH 7.4 for 2 times and subsequently lysed with 1.4 ml lysis buffer (0.3 M NaOH, 0.2% SDS). Radioactivity was determined in a γ-counter (Cobra II, Packard), normalized to 1 mio cells and calculated as percentage of the applied dose (% ID). Each experiment was performed 3 times, and 3 repetitions per independent experiment were acquired.
For internalization experiments the cells were incubated with the radiolabeled compound for 60 min at 37° C. and 4° C. Cellular uptake was terminated by removing medium from the cells and washing 2 times with 1 mL PBS. Subsequently, cells were incubated with 1 mL of glycine-HCl (1 Min PBS, pH 2.2) for 10 min at room temperature to remove the surface bound activity. The cells were washed with 2 mL of ice-cold PBS and lysed with 1.4 mL of lysis buffer to determine the internalized fraction. For the cells incubated at 4° C., all washing and elution steps were carried out using ice-cold buffers. The radioactivity was measured using a γ-counter, normalized to 1 mio cells and calculated as percentage of applied dose (% ID).

human CD26 = human CD26 (Homo sapiens (Human), UniProt P27487); experiment: Radioligand binding to CD26 expressing cells (HEK-CD26); conditions: 60 min incubation
Method: as §1
(§5) For radioligand binding studies, cells were seeded in 6-well plates and cultivated for 48 h to a final confluence of approx. 80-90% (1.2-2 mio cells/well). The medium was replaced by 1 mL fresh medium without fetal calf serum. The radiolabeled compound was added to the cell culture and incubated for different time intervals ranging from 10 min to 24 h. Competition experiments were performed by simultaneous exposure to unlabeled (10^−5 M to 10^−9 M) and radiolabeled compound for 60 min. […] Radioactivity was determined in a γ-counter (Cobra II, Packard), normalized to 1 mio cells and calculated as percentage of the applied dose (% ID). […]

HT-1080-FAP cells [3] = experiment: Efflux experiments in HT-1080-FAP cells; assay type: cell-based, human; conditions: after 24 h in compound-free medium
Method: as §3, §4

human FAP-α = human FAP-α (Homo sapiens (Human), UniProt Q12884); experiment: Competitive binding of radiolabeled compound to HT-1080-FAP cells against unlabeled compound
Method: Competition experiments were performed by simultaneous exposure to unlabeled (10^−5 M to 10^−9M) and radiolabeled compound for 60 min. […] For internalization experiments, surface bound activity was removed by incubating the cells with 1 M glycine-HCl buffer for 10 min. The radioactivity was measured using a γ-counter, normalized to 1 mio cells and calculated as percentage of applied dose (% ID).
The medium was replaced by 1 mL fresh medium without fetal calf serum. […] Competition experiments were performed by simultaneous exposure to unlabeled (10^−5 M to 10^−9 M) and radiolabeled compound for 60 min. […] In all experiments, the cells were washed with 1 mL phosphate-buffered saline pH 7.4 for 2 times and subsequently lysed with 1.4 ml lysis buffer (0.3 M NaOH, 0.2% SDS). Radioactivity was determined in a γ-counter (Cobra II, Packard), normalized to 1 mio cells and calculated as percentage of the applied dose (% ID). Each experiment was performed 3 times, and 3 repetitions per independent experiment were acquired.

[4] = system: FAP-negative cancer cell lines; experiment: Radioligand binding to FAP-negative human cancer cell lines; assay type: cell-based; conditions: I-125 labeled, 60 min
Method: as §1, §5

[5] = system: HT-1080-FAP tumor xenografts; experiment: Small-animal imaging (PET, scintigraphy) in HT-1080-FAP tumor bearing mice; assay type: in vivo, mouse; conditions: F-18 labeled (nicotinamide or AlF-18 NOTA), up to 140 min after i.v.
Method: For in vivo experiments, 8 week old BALB/c nu/nu mice (Charles River) were subcutaneously inoculated into the right trunk with 5×10^6 with HT-1080-FAP, Capan-2 or SK-LMS-1 cells, respectively. When the size of the tumor reached approximately 1 cm^3, the radiolabeled compound was injected via the tail vein (˜10 MBq for small-animal PET imaging; ˜1 MBq for organ distribution). […] Images were reconstructed iteratively using the 3D-OSEM+MAP method and were converted to standardized uptake value (SUV) images. Quantification was done using a ROI technique and expressed as SUV mean. For organ distribution of Lu-177 labeled compound ([…]), the animals (n=3 for each time point) were sacrificed after indicated time points (from 30 min to 24 h). The distributed radioactivity was measured in all dissected organs and in blood using a γ-counter (Cobra Autogamma, Packard). The values are expressed as percentage of injected dose per gram of tissue (% ID/g).

[6] = system: HT-1080-FAP tumor xenografts; experiment: Organ distribution ex vivo in HT-1080-FAP tumor bearing nude mice; design: species or system mouse; conditions: AlF-18-labeled, i.v.
[7] = I-125 labeled, 10 min incubation

Chain of human FAP-α (Q12884 whole entry): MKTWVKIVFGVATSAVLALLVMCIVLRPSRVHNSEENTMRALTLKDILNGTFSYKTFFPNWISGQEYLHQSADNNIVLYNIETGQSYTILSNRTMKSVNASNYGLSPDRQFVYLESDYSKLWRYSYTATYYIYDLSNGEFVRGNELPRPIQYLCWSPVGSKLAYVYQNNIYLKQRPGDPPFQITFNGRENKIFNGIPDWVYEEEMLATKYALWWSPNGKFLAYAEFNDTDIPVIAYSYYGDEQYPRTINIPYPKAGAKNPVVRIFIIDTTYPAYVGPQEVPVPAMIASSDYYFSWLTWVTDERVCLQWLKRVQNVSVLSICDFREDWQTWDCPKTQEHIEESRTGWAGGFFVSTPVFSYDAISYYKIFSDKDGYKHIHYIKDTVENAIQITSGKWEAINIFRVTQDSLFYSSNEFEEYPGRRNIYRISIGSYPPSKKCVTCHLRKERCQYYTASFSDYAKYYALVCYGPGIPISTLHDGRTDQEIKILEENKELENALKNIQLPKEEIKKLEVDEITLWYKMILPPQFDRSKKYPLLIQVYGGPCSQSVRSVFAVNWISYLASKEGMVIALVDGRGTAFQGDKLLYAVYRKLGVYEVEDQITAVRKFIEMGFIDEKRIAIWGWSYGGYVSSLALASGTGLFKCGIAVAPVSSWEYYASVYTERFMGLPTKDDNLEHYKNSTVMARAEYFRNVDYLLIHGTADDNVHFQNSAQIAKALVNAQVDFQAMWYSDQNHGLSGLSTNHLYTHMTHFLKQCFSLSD
Chain of human CD26 (P27487 whole entry): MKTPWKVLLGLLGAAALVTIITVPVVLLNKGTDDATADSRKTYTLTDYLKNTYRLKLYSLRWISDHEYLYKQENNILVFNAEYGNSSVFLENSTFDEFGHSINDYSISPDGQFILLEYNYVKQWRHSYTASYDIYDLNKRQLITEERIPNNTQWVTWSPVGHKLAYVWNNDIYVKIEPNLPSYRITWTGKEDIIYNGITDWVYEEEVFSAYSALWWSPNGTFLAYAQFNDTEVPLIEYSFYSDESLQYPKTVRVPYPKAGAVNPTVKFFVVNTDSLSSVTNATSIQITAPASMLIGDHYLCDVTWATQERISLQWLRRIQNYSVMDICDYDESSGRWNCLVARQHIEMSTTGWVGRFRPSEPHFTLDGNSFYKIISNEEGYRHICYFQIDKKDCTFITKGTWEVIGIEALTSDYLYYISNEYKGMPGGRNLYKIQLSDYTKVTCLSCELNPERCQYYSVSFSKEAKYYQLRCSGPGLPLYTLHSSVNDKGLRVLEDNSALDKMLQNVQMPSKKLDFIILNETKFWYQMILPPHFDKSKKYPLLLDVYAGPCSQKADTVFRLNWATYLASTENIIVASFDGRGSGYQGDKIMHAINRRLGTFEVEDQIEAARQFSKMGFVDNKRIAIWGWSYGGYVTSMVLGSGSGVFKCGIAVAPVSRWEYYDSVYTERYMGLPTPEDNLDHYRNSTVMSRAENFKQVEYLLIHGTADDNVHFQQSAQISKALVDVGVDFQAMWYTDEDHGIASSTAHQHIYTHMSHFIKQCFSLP

SMILES: CN(CCCC(=O)N1CCN(CCCOc2ccc3nccc(C(=O)CCCN4CCC[C@H]4C#N)c3c2)CC1)Cc1ccccc1-c1c2ccc(=N)cc-2oc2c(S(=O)(=O)O)c(N)ccc12 [FAPI-02-Atto488]
internalization into FAP-α expressing cells [1]: completely internalized
uptake in FAP-α negative HEK-CD26 cells (HEK-CD26 cells): no uptake is detectable

binding to CD26 expressing cells (% ID) (human CD26): 0.05±0.01%
pIC50 (human FAP-α; radiolabeled FAPI-01 (I-125) / FAPI-02 (Lu-177), HT-1080-FAP cells, 60 min, read-out: IC50 human FAP-α): 7.40
SMILES: N#C[C@@H]1CCCN1C(=O)CNC(=O)c1ccnc2cccc(I)c12 [FAPI-01]
activity remaining after 24 h of incubation relative to initial radioactivity (HT-1080-FAP cells [2]; 24 h incubation, FAPI-01 compared to binding after 10 min): 5%
proportion of total bound fraction located intracellularly (HT-1080-FAP cells [2]; [7]): 95%
total bound fraction (HT-1080-FAP cells [2]; [7]): 19.70±0.28%
internalized proportion of total (HT-1080-FAP cells [2]; I-125 labeled, 4 h incubation): 94%
total bound fraction (HT-1080-FAP cells [2]; I-125 labeled, 4 h incubation): 17.00±0.40%
radioactivity (HT-1080-FAP cells [2]; I-125 labeled, after 24 h, 4° C. (reduced deiodinase activity)): 26.66±1.59%
intracellular radioactivity (HT-1080-FAP cells [2]; I-125 labeled, after 24 h, 37° C.): 3.25±0.29%
retained radioactivity (efflux) (HT-1080-FAP cells [3]): 1.1 % ID
retention of the originally accumulated radioactivity (efflux) (HT-1080-FAP cells [3]): 1.1%
binding to FAP-negative cancer cell lines [4]: no significant binding

tumor uptake in organ distribution [6]: high tumor uptake
pIC50 (human FAP-α; F-18-FAPI derivatives, table title says EC50, head says IC50, read-out: IC50): 8.54
SMILES: N#C[C@@H]1CC(F)(F)CN1C(=O)CNC(=O)c1ccnc2ccc(OCCCN3CCN(C(=O)[C@H](CC(C(=O)O)C(=O)O)NC(=O)CN4CCN(CC(=O)O)CCN(CC(=O)O)CC4)CC3)cc12 [FAPI-75]
PET imaging findings [5]: high target specificity and fast clearance
